Source: patent US12077503B2, “Substituted cyclic amides and their use as herbicides” (FMC CORPORATION, priority 2015, dated 2024)

Legend:
Format in all cases: in vivo
[1] = test system: blackgrass (Alopecurus myosuroides); test: Test A postemergence; conditions: Alopecurus myosuroides, post-emergence, 240 h, 125 g ai/ha, postemergence; visual injury after approximately 10 d; 0 to 100 scale (0 no effect, 100 complete control); read-out: Plant response rating, Blackgrass
Procedure, shortened: (§1)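 Seeds sprayed preemergence with a directed soil spray, or plants at 2 to 10 cm height and one- to two-leaf stage sprayed postemergence, with test chemicals in a non-phytotoxic solvent mixture containing surfactant, in loam soil–sand blend. Injury rated visually against untreated controls after about 10 d in greenhouse, 0 (no effect) to 100 (complete control).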

[2] = test system: corn (Zea mays); test: Test A postemergence; conditions: Zea mays, post-emergence, 240 h, 125 g ai/ha, postemergence; visual injury after approximately 10 d; 0 to 100 scale (0 no effect, 100 complete control)
Procedure, shortened: as §1

[3] = test system: pigweed (Amaranthus retroflexus); test: Test A postemergence; conditions: Amaranthus retroflexus, post-emergence, 240 h, 125 g ai/ha, postemergence; visual injury after approximately 10 d; 0 to 100 scale (0 no effect, 100 complete control); read-out: Plant response rating, Pigweed
Procedure, shortened: as §1

[4] = test system: ragweed (common ragweed, Ambrosia elatior); test: Test A postemergence; conditions: Ambrosia artemisiifolia, post-emergence, 240 h, 125 g ai/ha, postemergence; visual injury after approximately 10 d; 0 to 100 scale (0 no effect, 100 complete control); read-out: Plant response rating, Ragweed
Procedure, shortened: as §1

[5] = test system: wheat (Triticum aestivum); test: Test A postemergence; conditions: Triticum aestivum, post-emergence, 240 h, 125 g ai/ha, postemergence; visual injury after approximately 10 d; 0 to 100 scale (0 no effect, 100 complete control); read-out: Plant response rating, Wheat
Procedure, shortened: as §1

[6] = test system: barnyardgrass (Echinochloa crus-galli); test: Test A postemergence; conditions: Echinochloa crus-galli, post-emergence, 240 h, 125 g ai/ha, postemergence; visual injury after approximately 10 d; 0 to 100 scale (0 no effect, 100 complete control); read-out: Plant response rating, Barnyardgrass
Procedure, shortened: as §1

[7] = test system: ryegrass, Italian (Italian ryegrass, Lolium multiflorum); test: Test A postemergence; conditions: Lolium multiflorum, post-emergence, 240 h, 125 g ai/ha, postemergence; visual injury after approximately 10 d; 0 to 100 scale (0 no effect, 100 complete control); read-out: Plant response rating, Ryegrass, Italian
Procedure, shortened: as §1

[8] = test system: Kochia (Kochia scoparia); test: Test A postemergence; conditions: Bassia scoparia, post-emergence, 240 h, 125 g ai/ha, postemergence; visual injury after approximately 10 d; 0 to 100 scale (0 no effect, 100 complete control); read-out: Plant response rating, Kochia
Procedure, shortened: as §1

[9] = test system: Galium (catchweed bedstraw, Galium aparine); test: Test A postemergence; conditions: Galium, post-emergence, 240 h, 125 g ai/ha, postemergence; visual injury after approximately 10 d; 0 to 100 scale (0 no effect, 100 complete control); read-out: Plant response rating, Galium
Procedure, shortened: as §1

[10] = test system: giant foxtail (Setaria faberii); test: Test A postemergence; conditions: Setaria faberi, post-emergence, 240 h, 125 g ai/ha, postemergence; visual injury after approximately 10 d; 0 to 100 scale (0 no effect, 100 complete control); read-out: Plant response rating, Foxtail, Giant
Procedure, shortened: as §1

[11] = test system: pigweed (Amaranthus retroflexus); test: Test A preemergence; conditions: Amaranthus retroflexus, pre-emergence, 240 h, preemergence, read-out: Plant response rating, Pigweed; for pest or weed control at 125 g/ha: 125 g ai/ha, visual rating after approx. 10 d, 0 to 100 scale where 0 is no effect and 100 is complete control; for pest or weed control at 500 g/ha: 500 g ai/ha, 0 to 100 scale, 0 = no effect, 100 = complete control
[12] = test system: ragweed (common ragweed, Ambrosia elatior); test: Test A preemergence; conditions: Ambrosia artemisiifolia, pre-emergence, 240 h, preemergence, read-out: Plant response rating, Ragweed; for pest or weed control at 125 g/ha: 125 g ai/ha, visual rating after approx. 10 d, 0 to 100 scale where 0 is no effect and 100 is complete control; for pest or weed control at 500 g/ha: 500 g ai/ha, 0 to 100 scale, 0 = no effect, 100 = complete control
Procedure, shortened: as §1

[13] = test system: barnyardgrass (Echinochloa crus-galli); test: Test A preemergence; conditions: Echinochloa crus-galli, pre-emergence, 240 h, preemergence, read-out: Plant response rating, Barnyardgrass; for pest or weed control at 125 g/ha: 125 g ai/ha, visual rating after approx. 10 d, 0 to 100 scale where 0 is no effect and 100 is complete control; for pest or weed control at 500 g/ha: 500 g ai/ha, 0 to 100 scale, 0 = no effect, 100 = complete control
Procedure, shortened: as §1

[14] = test system: ryegrass, Italian (Italian ryegrass, Lolium multiflorum); test: Test A preemergence; conditions: Lolium multiflorum, pre-emergence, 240 h, preemergence, read-out: Plant response rating, Ryegrass, Italian; for pest or weed control at 125 g/ha: 125 g ai/ha, visual rating after approx. 10 d, 0 to 100 scale where 0 is no effect and 100 is complete control; for pest or weed control at 500 g/ha: 500 g ai/ha, 0 to 100 scale, 0 = no effect, 100 = complete control
Procedure, shortened: as §1

[15] = test system: Kochia (Kochia scoparia); test: Test A preemergence; conditions: Bassia scoparia, pre-emergence, 240 h, preemergence, read-out: Plant response rating, Kochia; for pest or weed control at 125 g/ha: 125 g ai/ha, visual rating after approx. 10 d, 0 to 100 scale where 0 is no effect and 100 is complete control; for pest or weed control at 500 g/ha: 500 g ai/ha, 0 to 100 scale, 0 = no effect, 100 = complete control
Procedure, shortened: as §1

SMILES	pest or weed control at 125 g/ha [1] [%]	Corn plant response rating (crop injury, 0 = no effect, 100 = complete kill) at 125 g/ha [2] [%]	pest or weed control at 125 g/ha [3] [%]	pest or weed control at 125 g/ha [4] [%]	plant injury at 125 g/ha [5] [%]	pest or weed control at 125 g/ha [6] [%]	pest or weed control at 125 g/ha [7] [%]	pest or weed control at 125 g/ha [8] [%]	pest or weed control at 125 g/ha [9] [%]	pest or weed control at 125 g/ha [10] [%]	pest or weed control at 125 g/ha [11] [%]	pest or weed control at 500 g/ha [11] [%]	pest or weed control at 125 g/ha [12] [%]	pest or weed control at 500 g/ha [12] [%]	pest or weed control at 125 g/ha [13] [%]	pest or weed control at 500 g/ha [13] [%]	pest or weed control at 125 g/ha [14] [%]	pest or weed control at 500 g/ha [14] [%]	pest or weed control at 125 g/ha [15] [%]	pest or weed control at 500 g/ha [15] [%]
Cc1cc([C@H]2CNC(=O)[C@@H]2C(=O)Nc2ccc(F)cc2F)ccc1F [Compound 718]	20	0	0	0	0	70	0	30	40	30	0	0	0	40	90	90	30	30	0	60
Cc1cc([C@H]2CN(C)C(=O)[C@@H]2C(=O)Nc2ccc(F)c(F)c2F)ccc1F [Compound 719]	60	90	50	30	80	90	50	60	60	90	50	90	20	70	90	90	70	90	70	80
Cc1ccc([C@H]2CNC(=O)[C@@H]2C(=O)Nc2cccc(F)c2F)c(F)c1 [Compound 720]	20	0	0	0	0	90	0	50	50	20	0	0	0	80	90	100	0	20	20	70
C=CCN1C[C@H](c2ccc(OC)c(F)c2)[C@@H](C(=O)Nc2cccc(F)c2F)C1=O [Compound 722]	0	0	0	0	0	20	0	0	0	0	0	0	0	0	20	80	0	0	0	0
C=CCN1C[C@H](c2ccc(OC)c(F)c2)[C@@H](C(=O)Nc2ccccc2S(C)(=O)=O)C1=O [Compound 724]	0	0	0	0	0	0	0	0	0	0	0	0	0	0	0	0	0	0	0	0
Cc1cc([C@H]2CNC(=O)[C@@H]2C(=O)Nc2ccc(F)cc2F)ccc1Br [Compound 725]	0	0	0	0	0	70	0	0	20	0	0	0	0	0	90	90	0	20	0	50
CN1C[C@H](c2ccc(C(F)(F)F)cc2)[C@@H](C(=O)Nc2ccccc2C(F)(F)F)C1=O [Compound 726]	50	60	50	30	30	90	40	30	50	90	80	90	30	50	90	90	50	80	70	90
